From publication PMC12305296, “Repurposing of FDA‐Approved Drugs to Disrupt Iron Uptake in Mycobacterium abscessus: Targeting Salicylate Synthase as a Novel Approach” (Chemical Biology & Drug Design, 2025)
≈ marks a conversion by molar mass, not a printed value.

Experiments:
recombinant Mab‐SaS [1] = target: T1, recombinant Mab‐SaS (Mycobacteroides abscessus, UniProt B1MAQ5); assay: Mab‐SaS enzyme inhibition, direct fluorometric assay; assay type: biochemical, Mycobacterium abscessus; settings: for remaining activity at 100 µM: read-out: residual activity at 100 μM (%); for Ki: steady‐state kinetics, competitive inhibition equation; for mode of inhibition towards CHO: reciprocal plots of steady‐state kinetics; for inhibition at 100 µM: read-out: inhibition of Mab‐SaS at 100 μM
T1 sequence (B1MAQ5 entry or part of it): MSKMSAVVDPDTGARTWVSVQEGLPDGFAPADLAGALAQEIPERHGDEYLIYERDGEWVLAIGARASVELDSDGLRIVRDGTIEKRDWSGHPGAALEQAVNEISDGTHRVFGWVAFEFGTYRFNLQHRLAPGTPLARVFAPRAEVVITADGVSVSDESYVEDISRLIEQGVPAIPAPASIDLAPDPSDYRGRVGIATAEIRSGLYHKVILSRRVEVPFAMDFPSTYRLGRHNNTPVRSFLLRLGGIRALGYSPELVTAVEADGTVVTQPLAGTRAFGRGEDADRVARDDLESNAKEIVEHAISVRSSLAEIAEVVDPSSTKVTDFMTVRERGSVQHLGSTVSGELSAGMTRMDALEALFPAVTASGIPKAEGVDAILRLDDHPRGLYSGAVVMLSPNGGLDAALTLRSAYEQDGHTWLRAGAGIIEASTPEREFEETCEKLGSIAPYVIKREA
Description: The recombinant Mab‐SaS was expressed in E. coli and purified as previously reported (Mori et al. [2023]). Enzyme activity was determined by a direct fluorometric assay (Mori et al. [2020]). Briefly, the assays were performed in 400 μL of 50 mM potassium phosphate pH 8.0, containing 5 mM MgCl2, and 1–2 μM Mab‐SaS. The reaction was started by the addition of CHO and monitored using a PerkinElmer LS3 fluorimeter (Ex. λ = 305 nm, Em. λ = 410 nm; PerkinElmer, Waltham, MA, USA).
The compounds identified by the in silico investigations were purchased from CymitQuimica S.L. and dissolved at a concentration of 20 mM in dimethylsulfoxide (DMSO) or water, according to their solubility. Specifically, gentamycin, cytidine, amifostine, and hydroxystilbamidine were dissolved in water, while esomeprazole, fostamatinib, S‐adenosyl‐L‐homocysteine, norepinephrine, labetalol, levolansoprazole, and nebivolol were dissolved in DMSO.
The inhibitory activity of the candidates was initially evaluated at a final concentration of 100 μM, using a subsaturating concentration of the substrate (CHO) of 70 μM. […] IC50 was calculated by measuring enzymatic activity in the presence of different compound concentrations, using (Equation 1), where A[I] is the enzyme activity at inhibitor concentration [I] and A[0] is the enzyme activity without inhibitor. (1) AI=A0×1−I/I+IC50
The inhibition constant values (K i) were determined by assaying Mab‐SaS at different substrate and compound concentrations and using an adapted equation for competitive inhibition (Equation 2) with GraphPad 8.0 software. (2) v=VmaxS/S+Km1+I/Ki

recombinant Mab‐SaS [2] = target: T1, recombinant Mab‐SaS; assay: PAINS control assays (BSA, Triton X‐100, DTT) on Mab‐SaS inhibition; assay type: biochemical, Mycobacterium abscessus; settings: for inhibition in presence of BSA and Triton X‐100 (aggregation check): 0.1 mg/mL BSA or 0.01% (v/v) Triton X‐100; for effect of DTT on inhibition (cysteine reactivity check): 100 mM DTT
M. smegmatis mc^2155 = assay: REMA antimycobacterial assay in iron‐limiting chelated Sauton's medium; assay type: cell-based; settings: Mycolicibacterium smegmatis, iron‐limiting conditions
Description: Antimycobacterial activity of the best compounds was evaluated by REMA assay in iron‐limiting chelated Sauton's medium on M. smegmatis MC^2 155 (Siegrist et al. [2009]; Mehra and Philips [2014]). This microorganism is widely used as a non‐pathogenic model for Mab, since it shares similar biological characteristics and replicates more rapidly than other mycobacteria. By using this non‐pathogenic microorganism, we could efficiently study processes related to Mab, while minimizing the hazards and technical difficulties of working directly with a pathogenic strain.

NCCCNCCSP(=O)(O)O [Amifostine]
remaining activity at 100 µM (recombinant Mab‐SaS [1]): 78.1 ± 3.2%

Nc1ccn([C@@H]2O[C@H](CO)[C@@H](O)[C@H]2O)c(=O)n1 [Cytidine]
remaining activity at 100 µM (recombinant Mab‐SaS [1]): 88.8 ± 2.5%

COc1ccc2nc([S@@+]([O-])Cc3ncc(C)c(OC)c3C)[nH]c2c1 [Esomeprazole]
inhibition in presence of BSA and Triton X‐100 (aggregation check) (recombinant Mab‐SaS [2]): inhibited the enzyme
effect of DTT on inhibition (cysteine reactivity check) (recombinant Mab‐SaS [2]): no impact on the inhibition
IC50 (recombinant Mab‐SaS [1]): 13.6 ± 1.1 µM
inhibition of Mab‐SaS at 100 μM (recombinant Mab‐SaS [1]; 100 μM compound, 70 μM CHO): completely blocked the enzymatic activity
Ki (recombinant Mab‐SaS [1]): 3.7 ± 0.4 µM
remaining activity at 100 µM (recombinant Mab‐SaS [1]): 3.3 ± 1.7%
mode of inhibition towards CHO (recombinant Mab‐SaS [1]): competitive

COc1cc(Nc2ncc(F)c(Nc3ccc4c(n3)N(COP(=O)(O)O)C(=O)C(C)(C)O4)n2)cc(OC)c1OC [Fostamatinib]
inhibition in presence of BSA and Triton X‐100 (aggregation check) (recombinant Mab‐SaS [2]): inhibited the enzyme
effect of DTT on inhibition (cysteine reactivity check) (recombinant Mab‐SaS [2]): no impact on the inhibition
IC50 (recombinant Mab‐SaS [1]): 21 ± 1.3 µM
inhibition of Mab‐SaS at 100 μM (recombinant Mab‐SaS [1]; 100 μM compound, 70 μM CHO): completely blocked the enzymatic activity
residual activity at 100 μM (%) (recombinant Mab‐SaS [1]; 100 μM compound, 70 μM CHO, Mean ± SD of three experiments): 11.6 ± 0.7%
Ki (recombinant Mab‐SaS [1]): 11.7 ± 0.7 µM
mode of inhibition towards CHO (recombinant Mab‐SaS [1]): competitive

CNC(C)C1CCC(N)C(OC2C(N)CC(N)C(OC3OCC(C)(O)C(NC)C3O)C2O)O1 (stereo not shown) [Gentamycin]
inhibition of Mab‐SaS at 100 μM (recombinant Mab‐SaS [1]; 100 μM compound, 70 μM CHO): did not exhibit any inhibitory effect
remaining activity at 100 µM (recombinant Mab‐SaS [1]): 98.8 ± 5.7%

N=C(N)c1ccc(/C=C/c2ccc(C(=N)N)cc2O)cc1 [Hydroxystilbamidine]
inhibition in presence of BSA and Triton X‐100 (aggregation check) (recombinant Mab‐SaS [2]): inhibited the enzyme
effect of DTT on inhibition (cysteine reactivity check) (recombinant Mab‐SaS [2]): no impact on the inhibition
MIC (M. smegmatis mc^2155): 250 µM (≈ 70.1 µg/mL)
IC50 (recombinant Mab‐SaS [1]): 11.5 ± 1.1 µM
inhibition of Mab‐SaS at 100 μM (recombinant Mab‐SaS [1]; 100 μM compound, 70 μM CHO): completely blocked the enzymatic activity
Ki (recombinant Mab‐SaS [1]): 5.4 ± 0.5 µM
remaining activity at 100 µM (recombinant Mab‐SaS [1]): 0.5 ± 0.3%
mode of inhibition towards CHO (recombinant Mab‐SaS [1]): competitive

CC(CCc1ccccc1)NCC(O)c1ccc(O)c(C(N)=O)c1 (stereo not shown) [Labetalol]
inhibition at 100 µM (recombinant Mab‐SaS [1]): ~53%
remaining activity at 100 µM (recombinant Mab‐SaS [1]): 47 ± 2.1%

Cc1c(OCC(F)(F)F)ccnc1C[S@+]([O-])c1nc2ccccc2[nH]1 [Levolansoprazole]
inhibition at 100 µM (recombinant Mab‐SaS [1]): ~37%
remaining activity at 100 µM (recombinant Mab‐SaS [1]): 62.8 ± 1.7%

OC(CNCC(O)C1CCc2cc(F)ccc2O1)C1CCc2cc(F)ccc2O1 (stereo not shown) [Nebivolol]
remaining activity at 100 µM (recombinant Mab‐SaS [1]): 82.3 ± 1.3%

NC[C@H](O)c1ccc(O)c(O)c1 [Norepinephrine]
inhibition at 100 µM (recombinant Mab‐SaS [1]): ~24%
remaining activity at 100 µM (recombinant Mab‐SaS [1]): 75.5 ± 1.4%

Nc1ncnc2c1ncn2[C@@H]1O[C@H](CSCC[C@H](N)C(=O)O)[C@@H](O)[C@H]1O [S‐adenosyl‐L‐homocysteine]
remaining activity at 100 µM (recombinant Mab‐SaS [1]): 102 ± 3.8%
